From publication PMC4382154, “Screening of the Pan-African Natural Product Library Identifies Ixoratannin A-2 and Boldine as Novel HIV-1 Inhibitors” (PLoS ONE, 2015)
Counter-ions that a name gives are not always drawn. Like-named read-outs stand apart in the source and are kept apart here.

Experiments:
[1] = system: HCV J4(1b)/JFH1(2a) chimera; test: HCV replication assay in Huh-7.5 cells (NS5A flow cytometry); assay type: cell-based; settings: Hepatitis C virus, Huh7.5, 72 h, read-out: inhibition of HCV replication
Experimental: The intergenotypic chimeric HCV used in this study—Bi-Gluc-J4(1b)/JFH1(2a) containing cell culture adaptive mutations in NS2 (T2996C) and NS3 (A4827T)—was previously described and subsequently modified to express Gaussia luciferase in the first cistron. HCV stocks used for infection were generated by electroporation of in vitro transcribed RNA into Huh-7.5.1 cells and pooling of supernatants harvested between 60–96 hr post-electroporation. HCV infectivity was determined by limiting dilution assay as previously described.
HCV cell culture was performed as described previously. Briefly, 4*10^4 Huh-7.5 cells were seeded into 24-well plates and incubated at 37°C and 5% CO2 overnight. Cells were then infected with HCV (multiplicity of infection = 0.3) for 6 hours, followed by removal of HCV and incubation with fresh medium containing compounds at stated concentrations. Cultures were then incubated for 72 hours, with no more than 0.1% DMSO present in culture medium. Cells were then trypsinized, resuspended in culture medium, and stained with the 9E10 alexa-fluor-conjugated antibody to NS5A [27]. Cells were fixed and analyzed for NS5A fluorescence by flow cytometry, and data were analyzed using FlowJo software. […] For each culture, NS5A fluorescence was determined as the percent gated cells relative to percent gated cells in infected cultures plus 0.1% DMSO. All experiments were performed in at least duplicate in at least two independent experiments.
We therefore assessed the effects of ixoratannin A-2, boldine, and BIT-225 on replication of HCV, which also encodes a viral ion channel and protease. Using an established cell culture system, Huh-7.5 cells were infected with an intergenotypic chimera between the J4 (genotype 1b) and JFH1 (genotype 2a) strain of HCV for 6 hours, followed by incubation with fresh medium containing compounds at defined concentrations. Infected cells were then incubated for an additional 72 hours. NS5A expression, a marker of HCV infection, was then detected by flow cytometry.

SupT1 and CEM-SS cells = settings: cited from earlier work
[2] = system: Madin-Darby bovine kidney cells; design: method as in PMID 20832370; settings: read-out: CC50 in bovine viral diarrhea virus-infected Madin-Darby bovine kidney cells; cited from earlier work
[3] = system: monocyte derived macrophages; settings: cited from earlier work
[4] = PBMC cytotoxicity (ViaCount Assay); assay type: cell-based; settings: human, PHA-activated PBMCs; Day 5, ViaCount
Experimental: Cytotoxicity was determined by ViaCount Assay (Millipore). Briefly, Day 3 PHA-activated PBMCs (3*10^5) were cultured in R10+ supplemented with 100 units/mL human IL-2 in the presence of 0.1% DMSO or compounds at defined concentrations. At Day 5, 15 μL of each PBMC culture was mixed with Guava ViaCount Reagent at a 1:10 dilution. Data were collected using a Guava EasyCyte HT Flow Cytometer (Millipore).

HIV-1NL4-3 [5] = test: HIV-1 replication assay in PBMCs (p24Gag ELISA); assay type: cell-based; settings: 10 μM, Day 12
Experimental: PBMCs from HIV-1 negative subjects, purchased commercially (StemCell Technologies, Vancouver, Canada), were maintained in RPMI-1640 media (Sigma) supplemented with penicillin/streptomycin plus 10% fetal calf serum (R10+). 72 h prior to viral infection, PBMCs were stimulated by addition of 5 μg/mL phytohaemaglutanin (PHA) (Day 0) and maintained in R10+ medium supplemented with 100 units/mL human IL-2. At Day 3 following cellular activation, 3x10^5 cells were infected with HIV-1NL4-3 at a multiplicity of infection of 0.003 (0.3% infected cells) and incubated at 37°C for 6h, followed by wash and re-suspension in fresh R10+ medium supplemented with 100 units/mL human IL-2 and with or without compounds at defined concentrations. Culture supernatants were collected and replaced with fresh medium supplemented with human IL-2 every 3 days (i.e., Days 6, 9, and 12) with or without fresh compounds. Viral replication at day 12 was monitored by measuring cell culture supernatant levels of p24^Gag by ELISA (XpressBio, Frederick, MD) following manufacturer’s instructions.

in vitro = assay type: cell-based; settings: human
[6] = Cell toxicity in HIV-1 infected CEM-GXR cultures (forward/side scatter); assay type: cell-based; settings: human, HIV-1NL4-3-infected CEM-GXR cells (CD4+ T-lymphocyte line), Day 4
Experimental: (§1) CEM-GXR cells are an immortalized CD4+ T-lymphocyte line engineered that naturally express the HIV-1 coreceptor CXCR4 and have been further engineered to express the HIV-1 co-receptor CCR5 and a Tat-driven LTR-GFP expression cassette. As such, intracellular GFP expression indicates HIV-1 infection. Cultures of 10^5 CEM-GXR cells were seeded into 96-well plates with RPMI-1640 media (Sigma) supplemented with penicillin/streptomycin plus 20% fetal calf serum (R20+), infected with HIV-1 at a multiplicity of infection of 0.03 (to achieve 3% infected cells on Day 2), and incubated at 37°C and 5% CO2. 24 hours later, cells were pelleted at 750 g and resuspended in R20+ containing compound or 0.1% DMSO. […] Cells were then incubated at 37°C and 5% CO2 for an additional 72 h. 5,000 cells from each culture were measured for cell toxicity and GFP expression by flow cytometry. Flow cytometry data were analyzed using FlowJo v. 8.8.7 software (FlowJo LLC, Ashland, OR). […] Background GFP expression in uninfected cultures was set at 0.05% GFP-positive cells. For each experiment, all data points were obtained in triplicate. All data are reported as the mean ± s.e.m. from at least 3 independent experiments performed with different virus stocks and/or performed on different days. However, all experiments that compare HIV-1NL4-3 and mutant HIV-1 were performed in parallel. EC50 and CC50 values for each compound were calculated from at least four concentrations. Statistical analyses were performed using Student’s unpaired t test, with a p value < 0.05 plus a Bonferroni correction to adjust for multiple comparisons considered significant.
(§2) To assess the effects of these eight compounds on cell viability and HIV-1 replication, we infected a GFP-reporter CEM CD4+ T cell line (CEM-GXR) with the NL4-3 strain of HIV-1 (HIV-1NL4-3). Briefly, cells were infected with HIV-1NL4-3 at a multiplicity of infection of 0.03 (Day 0), followed by removal of HIV-1 and addition of compound (or 0.1% DMSO vehicle control) 24 hours later (Day 1) and incubation for an additional 72 hours to allow HIV-1 spread (Days 2–4). On Days 2 and/or 4, the percent HIV-1 infected (i.e., GFP-expressing) cells was measured by flow cytometry. Cell viability was assessed by measuring the percentage of cells displaying normal forward- and side-scatter parameters in drug-treated, HIV-1 infected cultures compared to 0.1% DMSO-treated, HIV-1 infected control cultures. […] HIV-1NL4-3 replication was unaffected by the presence of 0.1% DMSO vehicle control (Fig. 2B).

HIV-1NL4-3 [7] = test: microbe, parasite or virus in culture; assay type: cell-based; settings: for HIV-1 inhibition in the viral replication assay (in words): up to 100 μM; for EC50: read-out: HIV-1NL4-3 inhibition (EC50); for replication of HIV-1NL4-3 in CEM-GXR cells (in words): 0.1 μM
Experimental: as §1, §2

CEM-GXR cells = test: Cell toxicity in HIV-1 infected CEM-GXR cultures (forward/side scatter); assay type: cell-based; settings: HIV-1NL4-3-infected CEM-GXR cells, Day 4
Experimental: as §1, §2

HIV-1PR+RT = HIV-1PR+RT replication in CEM-GXR cells; assay type: cell-based; settings: 0.1 μM, CEM-GXR cells, Day 4
Experimental: (§3) HIV-1Δvpu was constructed by digesting plasmid p210-13 3’ Δ-vpu with EcoRI and NheI enzymes. The resulting DNA fragment was then ligated into wild-type pNL4-3 plasmid digested with the same enzymes. HIV-1Δvpu and HIV-1NL4-3 viral stocks were prepared by transfection of HEK-293T cells, as previously described. Patient plasma-HIV-1 RNA sequences were analyzed for resistance mutations using the HIV Drug Resistance Database Genotype Resistance Interpretation Algorithm (hivdb.stanford.edu). Recombinant HIV-1NL4-3 expressing patient-derived HIV-1 sequences harboring resistance mutations to protease and reverse transcriptase inhibitors (HIV-1PR+RT), reverse transcriptase inhibitors (HIV-1RT), and integrase inhibitors (HIV-1INT) were generated by homologous recombination following co-transfection as reported.
as §1
(§4) To investigate the mechanisms by which ixoratannin A-2 and boldine may block HIV-1 replication, we used a previously-reported HIV-1NL4-3 strain lacking the Vpu coding region (HIV-1Δvpu). We also constructed recombinant HIV-1NL4-3 strains harboring protease, reverse transcriptase, and/or integrase sequences of HIV-1 strains from patients who had developed resistance to the protease inhibitor Indinavir (IND), the non-nucleoside reverse transcriptase inhibitor Efavirenz (EFV), and/or the integrase inhibitor Raltegravir (RAL) (denoted HIV-1PR+RT, HIV-1RT, and HIV-1INT, respectively). Re-sequencing of the recombinant viruses confirmed the presence of multiple mutations known to confer resistance to IND, EFV, and/or RAL (Table 2).

HIV-1Δvpu = HIV-1Δvpu replication in CEM-GXR cells; assay type: cell-based; settings: 0.1 μM, Day 4
Experimental: as §3, §1, §4

HIV-1RT = test: microbe, parasite or virus in culture; assay type: cell-based; settings: 0.1 μM, CEM-GXR cells, Day 4
Experimental: CEM-GXR cells are an immortalized CD4+ T-lymphocyte line engineered that naturally express the HIV-1 coreceptor CXCR4 and have been further engineered to express the HIV-1 co-receptor CCR5 and a Tat-driven LTR-GFP expression cassette. As such, intracellular GFP expression indicates HIV-1 infection [26]. Cultures of 10^5 CEM-GXR cells were seeded into 96-well plates with RPMI-1640 media (Sigma) supplemented with penicillin/streptomycin plus 20% fetal calf serum (R20+), infected with HIV-1 at a multiplicity of infection of 0.03 (to achieve 3% infected cells on Day 2), and incubated at 37°C and 5% CO2. 24 hours later, cells were pelleted at 750 g and resuspended in R20+ containing compound or 0.1% DMSO. […] Cells were then incubated at 37°C and 5% CO2 for an additional 72 h. 5,000 cells from each culture were measured for cell toxicity and GFP expression by flow cytometry. […] Background GFP expression in uninfected cultures was set at 0.05% GFP-positive cells. For each experiment, all data points were obtained in triplicate. All data are reported as the mean ± s.e.m. from at least 3 independent experiments performed with different virus stocks and/or performed on different days. […] EC50 and CC50 values for each compound were calculated from at least four concentrations. Statistical analyses were performed using Student’s unpaired t test, with a p value < 0.05 plus a Bonferroni correction to adjust for multiple comparisons considered significant.

HIV-1INT = HIV-1INT replication in CEM-GXR cells; assay type: cell-based; settings: 0.1 μM, CEM-GXR cells, Day 4
Experimental: as §3, §1, §4

[8] = Human immunodeficiency virus 1, 96 h, CEM-GXR cells, Day 4

Row | SMILES | CC50 at 72 h [6] [µM] | HIV-1 inhibition in the viral replication assay (in words) (HIV-1NL4-3 [7]; CEM-GXR cells) | EC50 (HIV-1NL4-3 [7]; [8]) [µM] | replication of HIV-1Δvpu in CEM-GXR cells (in words) (HIV-1Δvpu) | replication of HIV-1NL4-3 in CEM-GXR cells (in words) (HIV-1NL4-3 [7]; Day 4) | also measured
1 | Cn1cc(-c2cccc3cc(C(=O)NC(=N)N)ccc23)cn1 [BIT-225, reference compound] | 10.7 |  |  |  |  | inhibition at 30 µM [1]: 37.5%; CC50 (SupT1 and CEM-SS cells): 32 to 67 µM; CC50 [2]: 11.6 µM; CC50 [3]: 167 to 284 µM; CC50 [4]: 12.8 µM; reduced HIV-1 replication in PBMCs (p24Gag) (HIV-1NL4-3 [5]): 31.8%; CC50 at 72 h (in vitro): 52.9 µM
2 | O=C(O[C@@H]1Cc2c(O)cc(O)cc2O[C@@H]1c1ccc(O)c(O)c1)c1cc(O)c(O)c(O)c1 [ECG, epicatechin gallate] | > 100 | did not observe antiviral activity | > 100 |  |  | 
3 | CC(=O)c1c(O)cc(OC2OC(O)C(O)C(O)C2O)c(-c2c(C)cc(O)c3c2C(=O)c2cccc(O)c2C3=O)c1O (stereo not drawn) [2MA, 1-(3-acetyl-2,4-dihydroxy-6-((3,4,5,6-tetrahydroxytetrahydro-2H-pyran-2-yl)oxy)phenyl)-4,5-dihydroxy-2-methylanthracene-9,10-dione] | 50.9 | did not inhibit HIV-1 | > 100 |  |  | 
4 | COc1cc2ccc3c(OC)c(O)ccc3c2c(OC)c1O [PA, 1,5,7-trimethoxyphenanthrene-2,6-diol] | < 30 |  |  |  |  | CC50 (CEM-GXR cells): 26.8 µM
5 | CC(C)(C)NC(=O)[C@@H]1CN(Cc2cccnc2)CCN1C[C@@H](O)C[C@@H](Cc1ccccc1)C(=O)N[C@H]1c2ccccc2C[C@H]1O [IND, Indinavir, reference compound] |  |  |  | inhibited | inhibited | HIV-1PR+RT replication fold higher than HIV-1NL4-3 (HIV-1PR+RT): 2.7 fold
6 | O=C1Nc2ccc(Cl)cc2[C@@](C#CC2CC2)(C(F)(F)F)O1 [EFV, Efavirenz, reference compound] |  |  |  | inhibited | inhibited | HIV-1RT replication fold greater than HIV-1NL4-3 (HIV-1RT): 3.4 fold; HIV-1PR+RT replication fold higher than HIV-1NL4-3 (HIV-1PR+RT): 2.6 fold
7 | O=c1oc2c(O)c(O)cc3c(=O)oc4c(O)c(O)cc1c4c23 [EA, ellagic acid] | 52.3 | did not observe these activities | > 100 |  |  | 
8 | CC(N)C12CC3CC(CC(C3)C1)C2 (stereo not drawn) [rimantadine, rimantadine hydrochloride, reference compound] |  |  |  |  |  | inhibition at 50 µM [1]: 40.7%
9 | Cc1nnc(C(=O)NC(C)(C)c2nc(C(=O)NCc3ccc(F)cc3)c(O)c(=O)n2C)o1 [RAL, Raltegravir, reference compound] |  |  |  | inhibited | inhibited | HIV-1INT replication fold higher than HIV-1NL4-3 (HIV-1INT): 1.7 fold
10 | O=C1OCc2cc3cccc(OC4OC(CO)C(O)C(O)C4O)c3c(O)c21 (stereo not drawn) [geshoidin] | > 10 | did not inhibit HIV-1 |  |  |  | EC50 (HIV-1NL4-3 [7]; Human immunodeficiency virus 1, CEM-GXR, 96 h): > 100 µM
